Where “and” joins values, the source holds several entries; their conditions need not be identical. Equal entries are not always repeated. Where two headings read alike, the source gives them in different places.
Tests used:
[1] = cited from earlier work; for F total meas (total bioavailability experimentally determined): naltrexone 4 mg
[2] = intranasal, with versus without DDM
SARS-CoV-2 = test: Oral NAC in mild or moderate COVID-19, open label controlled study NCT04419025; type: in vivo
[3] = system: brain glutathione (GSH/Cr); test: Intranasal NAC, brain glutathione by MEGA PRESS MR Spectroscopy in healthy subjects; type: in vivo, humans
Protocol: In this example, intranasal administration of NAC to healthy humans was studied.
The study consisted of two study periods each involving 3 subjects and was designed to provide rapid proof-of-concept data on the ability of intranasal NAC to increase brain GSH levels. In Study Period 1, three right-handed male subjects, and 58 were evaluated. After informed consent and completion of a medical history questionnaire, each subject participated in multiple MR Spectroscopy sessions. On the first day, each subject was scanned once. A T1-weighted thin slice data set was acquired for subsequent positioning of a MR spectroscopy voxel (5×5×3 cm3) positioned with its posterior edge covering the genu of the corpus callosum, extending anteriorly into the frontal lobes.
GSH levels were determined within the volume of interest using […] double-editing for the cysteinyl β-CH2 residue of GSH. Spectral editing was accomplished by refocusing GSH J-evolution during every other acquisition (ON), using a Gaussian pulse centered at the cysteinyl α-CH resonance of GSH at 4.56 p.p.m. During the alternate acquisitions (OFF), the pulse was applied symmetrically about the water peak. The difference-edited GSH spectrum was generated by subtraction of the OFF and ON spectra. Data analysis was accomplished using the GANNET software package which provided information on the GSH/Cr ratio. The Day 1 scan served as an initial baseline.
On Day 2, another baseline evaluation was performed, along with two additional scans at 1-hour and 2-hours post administration of intranasal NAC. The timing of Day 2 scans was shifted relative to Day 1, such that the time-of-day for the Day 1 baseline scan matched the time-of-day of the Day 2, 1-hour post NAC scan. This is illustrated in FIG. 2 and was done to provide control for potential circadian rhythm effects in GSH levels. In FIG. 2, green bars show times of spectroscopic imaging. The time-of-day for the baseline MRS scan on Day 1 matches the time-of-day for the 1-hour post-NAC scan on Day 2.
Solution was delivered as six alternating bursts of 0.33 ml to each nostril over the course of 5-10 minutes.
In Study Period 2, three additional right-handed male subjects, and 31 were studied. MRS data were collected on a single day, with baseline, 1 hr, 2 hrs, and 4 hrs post-NAC evaluations (as illustrated in FIG. 5). The same spectroscopic methods as used in period 1 were employed. However, a multi-dose pump intranasal delivery device was used.

[4] = system: A/H1N1 Singapore 6/86 influenza virus; conditions: oral NAC over 6 months; control 79%; cited from earlier work
GSH levels in the brain = conditions: NAC delivered intranasally and orally; cited from earlier work
[5] = Safety and tolerability of intranasal NAC in healthy subjects
[6] = intranasal + DDM, sumatriptan 10 mg
[7] = intranasal, without DDM, sumatriptan 20 mg
[8] = study period 1, intranasal 20% MUCOMYST, 1 ml per nostril, mucosal atomization device, subject (male)
[9] = study period 2, intranasal, multi-dose pump, (male)

## O=C1CC[C@@]2(O)[C@H]3Cc4ccc(O)c5c4[C@@]2(CCN3CC2CC2)[C@H]1O5 [Naltrexone]
[1]; [6]
  F total meas (total bioavailability experimentally determined): 95%
[1]; [7]
  F total meas (total bioavailability experimentally determined): 65%

## CNS(=O)(=O)Cc1ccc2[nH]cc(CCN(C)C)c2c1 [Sumatriptan]
[2]
  increase in bioavailability when dosed together with DDM: 35%
[1]; [6]
  F total meas (total bioavailability experimentally determined): 69%
[1]; [7]
  F total meas (total bioavailability experimentally determined): 34%

## CC(=O)N[C@@H](CS)C(=O)O [NAC, N-acetyl cysteine]
SARS-CoV-2; hospitalized group, oral NAC
  fewer days in the hospital versus no NAC: 1 days
SARS-CoV-2; hospitalized group, oral NAC 25 mg/kg every 4 hours, 6 days without NAC
  hospitalization days: 5 days
SARS-CoV-2; hospitalized group, oral NAC, group without NAC had 2-3 deaths
  deaths: no deaths
SARS-CoV-2; outpatients
  increase in hospitalization needed for those who did not receive oral NAC: ~5 x
SARS-CoV-2; outpatients, mild cases, oral NAC 2400 mg then 1200 mg 2x/day for 2 weeks, 15% without NAC
  outpatients needing hospitalization: 3-4%
[3]; all subjects, FIG. 8
  time of peak levels: 1 to 2 h
[3]; intranasal NAC
  effect on brain GSH as measured by MR spectroscopy: statistically significant increase
[3]; intranasal NAC, 4 hours, FIG. 8
  brain GSH levels above baseline at 4 hours: ~ 35%
[3]; intranasal NAC, combined across all subjects, FIG. 8
  increase in brain GSH levels (average percent change in GSH/Cr): > 50%
[3]; study period 1
  time for which the increase in brain GSH/Cr level is sustained post-administration: at least 2 hours
[3]; [8]
  Day 2, 1-hour post-NAC GSH/Cr: 0.059 and 0.037 and 0.031
  Day 2, 2-hours post-NAC GSH/Cr: 0.052 and 0.035 and 0.048
[3]; study period 2
  time for which increased brain GSH/Cr levels are maintained: at least 4 hrs
[3]; [9]
  1-hr post-NAC GSH/Cr: 0.034 and 0.053 and 0.050
  2-hours post-NAC GSH/Cr: 0.039 and 0.042 and 0.045
  4 hrs-hours post-NAC GSH/Cr: 0.036 and 0.041 and 0.042
[4]
  developed a symptomatic form of the A/H1N1 Singapore 6/86 influenza virus: 25%
GSH levels in the brain
  effect on GSH levels in the brain: increase in GSH levels in the brain
[1]; oral dosing
  bioavailability of oral NAC: 10% and 9-10%
[5]; intranasal NAC
  changes in heart-rate, breathing rate, O2 saturation or blood pressure: No significant changes
  duration of transient nausea: < 5 min
  subjects voicing complaints about the NAC odor: 5 of 6
[5]; intranasal NAC, 6 subjects
  adverse events: no adverse events were reported
  subjects reporting very mild transient nausea: 2
[5]; mucosal atomizer, study period 1
  complaints of NAC fluid into the throat: all three subjects complained
[5]; multi-dose pump, study period 2
  complaints of NAC fluid into the throat: not found

Reference: US20230263725A1, “INTRANASAL ADMINISTRATION OF AN ANTIOXIDANT COMPOUND FOR TREATING CORONAVIRUS INFECTION” (priority 2020, published 2023)
